These results are taken from patent publication US9567338B2, “Pyrazolo[3,4-d]pyrimidine compounds, their preparation and use as sigma ligands” (LABORATORIOS DEL DR. ESTEVE S.A., priority 2011, dated 2017).

SMILES strings stand for the structures.

The test deals with σ1-receptor (Cavia porcellus (Guinea pig), UniProt Q60492). In words: σ1-receptor binding assay, [3H]-(+)-pentazocine displacement in brain membranes. The settings on record: radioligand [3H]-(+)-pentazocine 5.0 nM; for % Displacement (10^−6 M): compound at 10^−6 M. As for the experimental part: Guinea pig brains were homogenized in 10 vols. (w/v) of Tris-HCl 50 mM 0.32 M sucrose, pH 7.4, with a Kinematica Polytron PT 3000 at 15000 r.p.m. for 30 s. The homogenate was centrifuged at 1000 g for 10 min at 4° C. and the supernatants collected and centrifuged again at 48000 g for 15 min at 4° C. The pellet was resuspended in 10 volumes of Tris-HCl buffer (50 mM, pH 7.4), incubated at 37° C. for 30 min, and centrifuged at 48000 g for 20 min at 4° C. Following this, the pellet was resuspended in fresh Tris-HCl buffer (50 mM, pH 7.4) and stored on ice until use.
The radioligand used was [^3H]-(+)-pentazocine at 5.0 nM and the final volume was 200 μl. The incubation was initiated with the addition of 100 μA of membrane at a final tissue concentration of approximately 5 mg tissue net weight/mL and the incubation time was 150 m. at 37° C. After incubation, the membranes were collected onto pretreated glass fiber filterplate (MultiScreen-FC, Millipore), with polyethylenimine 0.1%. The filters were washed two times with 200 μA of washing buffer (50 mM Tris CI, pH=7.4) and then 25 μl of Ecoscint H liquid scintillation cocktail were added. […] Nonspecific binding was determined with 1 μM haloperidol.

Chain of σ1-receptor (Q60492 whole entry): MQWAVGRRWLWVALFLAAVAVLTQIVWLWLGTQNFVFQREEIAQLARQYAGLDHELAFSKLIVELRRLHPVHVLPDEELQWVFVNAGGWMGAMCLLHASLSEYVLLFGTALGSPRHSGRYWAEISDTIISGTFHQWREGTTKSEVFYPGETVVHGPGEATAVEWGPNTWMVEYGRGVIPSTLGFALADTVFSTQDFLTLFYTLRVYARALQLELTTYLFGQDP

For orientation: Ki means a dissociation constant, usually derived from enzyme kinetics or from competition with a known ligand. Regarding `Cl.O=C(Nc1ncnc2c1cnn2CCN1CCCCC1)C1CCCCC1` [Example 6, N-(1-(2-(Piperidin-1-yl)ethyl)-1H-pyrazolo[3,4-d]pyrimidin-4-yl)cyclohexanecarboxamide hydrochloride], the “% Displacement (10^−6 M)” value came out at 78.6% and the Ki came to 73.1 nM.
The like results for `CC(C)(C)c1cc(C(=O)Nc2ncnc3c2cnn3CCN2CCCCC2)cc(C(C)(C)C)c1.Cl` [Example 9, 3,5-di-tert-Butyl-N-(1-(2-(piperidin-1-yl)ethyl)-1H-pyrazolo[3,4-d]pyrimidin-4-yl)benzamide hydrochloride] were, in that order, 49.50% and 700 nM.
For the compound `CC(C)N(CCn1ncc2c(NC(=O)C3CCCCC3)ncnc21)C(C)C.O=C(O)/C=C\C(=O)O` [Example 16, N-(1-(2-(Diisopropylamino)ethyl)-1H-pyrazolo[3,4-d]pyrimidin-4-yl)cyclohexanecarboxamide maleate], the “% Displacement (10^−6 M)” value stood at 68.2% and the Ki turned out to be 244 nM.
Take `CC(C)N(CCn1ncc2c(NC(=O)C34CC5CC(CC(C5)C3)C4)ncnc21)C(C)C.O=C(O)/C=C\C(=O)O` [Example 18, N-(1-(2-(Diisopropylamino)ethyl)-1H-pyrazolo[3,4-d]pyrimidin-4-yl)-1-adamantylcarboxamide maleate]: the “% Displacement (10^−6 M)” value is 90.2% and the inhibition constant Ki worked out at 56.7 nM.
The like results for `CC(C)N(CCn1ncc2c(NC(=O)C34C5CC6CC3CC64C5)ncnc21)C(C)C.Cl` [Example 21, N-(1-(2-(Diisopropylamino)ethyl)-1H-pyrazolo[3,4-d]pyrimidin-4-yl)-1-noradamantylcarboxamide hydrochloride] were, in that order, 90.8% and 55 nM.
The like results for `Cl.O=C(Nc1ncnc2c1cnn2CCN1CCCCCC1)C12C3CC4CC1CC42C3` [Example 22, N-(1-(2-(Azepan-1-yl)ethyl)-1H-pyrazolo[3,4-d]pyrimidin-4-yl) 1-noradamantylcarboxamide hydrochloride] were, in that order, 97.2% and 15 nM.
The like results for `CC(C)N(CCn1ncc2c(NC(=O)C3CCCC3)ncnc21)C(C)C.O=C(O)/C=C\C(=O)O` [Example 28, N-(1-(2-(Diisopropylamino)ethyl)-1H-pyrazolo[3,4-d]pyrimidin-4-yl)cyclopentanecarboxamide maleate] were, in that order, 54.0% and 631 nM.
For `CC(C)N1CCN(CCn2ncc3c(NC(=O)C45CC6CC(CC(C6)C4)C5)ncnc32)CC1.O=C(O)/C=C\C(=O)O` [Example 31, N-(1-(2-(4-isopropylpiperazin-1-yl)ethyl)-1H-pyrazolo[3,4-d]pyrimidin-4-yl) 1-adamantylcarboxamide maleate], the “% Displacement (10^−6 M)” value came out at 76.8% and the Ki is 573 nM.
Turning to `CC(C)N1CCN(CCn2ncc3c(NC(=O)C4CCCC4)ncnc32)CC1.O=C(O)/C=C\C(=O)O` [Example 32, N-(1-(2-(4-isopropylpiperazin-1-yl)ethyl)-1H-pyrazolo[3,4-d]pyrimidin-4-yl)cyclopentanecarboxamide maleate], the “% Displacement (10^−6 M)” value amounted to 63.3%. Under “maleate”, the Ki is 683 nM.
For the compound `CCCNC(=O)Nc1ncnc2c1cnn2CCN1CCCOCC1` [Example 44, 1-(1-(2-(1,4-oxazepan-4-yl)ethyl)-1H-pyrazolo[3,4-d]pyrimidin-4-yl)-3-propylurea], affinity was put at a Ki of 252 nM.
For the compound `CC(C)N(CCn1ncc2c(NC(=O)NC(C)(C)C)ncnc21)C(C)C.Cl` [Example 61, 1-tert-Butyl-3-(1-(2-(diisopropylamino)ethyl)-1H-pyrazolo[3,4-d]pyrimidin-4-yl)urea hydrochloride], the “% Displacement (10^−6 M)” value amounted to 25.9% and the inhibition constant (Ki) was 805 nM.
The like results for `O=C(Nc1ccc(Cl)cc1Cl)Nc1ncnc2c1cnn2CCN1CCCCCC1.O=C(O)CC(O)(CC(=O)O)C(=O)O` [Example 64, 1-(1-(2-(azepan-1-yl)ethyl)-1H-pyrazolo[3,4-d]pyrimidin-4-yl)-3-(2,4-dichlorophenyl)urea citrate] were, in that order, 91.4% and 108 nM.
Regarding `CC(C)(C)CC(C)(C)NC(=O)Nc1ncnc2c1cnn2CCN1CCCCCC1.O=C(O)/C=C\C(=O)O` [Example 65, 1-(1-(2-(azepan-1-yl)ethyl)-1H-pyrazolo[3,4-d]pyrimidin-4-yl)-3-(2,4,4-trimethylpentan-2-yl)urea maleate], the “% Displacement (10^−6 M)” value is on record as 96.8% and affinity was put at a Ki of 27.9 nM.
`CCCNC(=O)Nc1ncnc2c1cnn2CCCN1CCCCCC1` [Example 73, 1-(1-(3-(azepan-1-yl)propyl)-1H-pyrazolo[3,4-d]pyrimidin-4-yl)-3-propylurea] showed a Ki of 102 nM. In other words, the sub-micromolar range.
The compound `CCCNC(=O)Nc1ncnc2c1cnn2CCN1CCC(C(C)(C)C)CC1` [Example 74, 1-(1-(2-(4-tert-butylpiperidin-1-yl)ethyl)-1H-pyrazolo[3,4-d]pyrimidin-4-yl)-3-propylurea] came in with an inhibition constant Ki of 212 nM.
Turning to `CNC(=S)Nc1ncnc2c1cnn2CCN1CCCCCC1.O=C(O)/C=C\C(=O)O` [Example 76, 1-(1-(2-(azepan-1-yl)ethyl)-1H-pyrazolo[3,4-d]pyrimidin-4-yl)-3-methylthiourea maleate], the “% Displacement (10^−6 M)” value is 96.8% and the Ki was found to be 14.9 nM.
Compound `CN1CCN(CCCn2ncc3c(NC(=O)C(C)(C)C)ncnc32)CC1` [Example 86, N-(1-(3-(4-methylpiperazin-1-yl)propyl)-1H-pyrazolo[3,4-d]pyrimidin-4-yl)pivalamide] had a Ki of 329 nM.
Regarding `CCCNC(=O)Nc1ncnc2c1cnn2CCCCN1CCC(C(C)(C)C)CC1` [Example 93, 1-(1-(4-(4-tert-butylpiperidin-1-yl)butyl)-1H-pyrazolo[3,4-d]pyrimidin-4-yl)-3-propylurea], the inhibition constant (Ki) came out at 280 nM.
The compound `CC(=O)N(C)c1ncnc2c1cnn2CCN1CCCCCC1` [Example 101, N-(1-(2-(azepan-1-yl)ethyl)-1H-pyrazolo[3,4-d]pyrimidin-4-yl)-N-methylacetamide] gave a Ki of 221 nM.
`Cc1ccc(C)n1-c1ncnc2c1cnn2CCN1CCCCC1` [Example 105, 4-(2,5-dimethyl-1H-pyrrol-1-yl)-1-(2-(piperidin-1-yl)ethyl)-1H-pyrazolo[3,4-d]pyrimidine]: the affinity corresponds to a Ki of 740 nM. Compared with the last compound, the Ki is about 3.3-fold higher.
